Experimental data from patent publication US20240423976A1, “COMPOSITIONS AND METHODS FOR TREATING THERAPEUTIC-INDUCED TOXICITIES” (THE BOARD OF REGENTS OF THE UNIVERSITY OF OKLAHOMA, priority 2023, published 2024).
Values belong to the compound of their own block, whether it stands above or below them.

Columns and labels:
HEI-OC1 cells [1] = test: Cellular internalization study of C6-cHy-NPs with pathway inhibitors and over time; format: cell-based; conditions: 40 μg/mL inhibitor, 1 h pre-incubation
Experimental: First, blank cHy-NPs (cHy-NPs, without FL or HK encapsulation) were prepared as described below. In, 1 mL colloidal solution of cHy-NPs, 1 mg coumarin-6 (C-6) was added and the mixture was stirred at 200 rpm overnight at room temperature. The NP solution was then centrifuged at 2000 rpm for 5 min to remove unloaded C-6. The supernatant containing C-6-cHy-NPs was transferred to a fresh microcentrifuge tube. The HEI-OC1 (House Ear Institute-Organ of Corti 1) cells were seeded in 96 well plate (10000 cells per well) overnight. After washing with fresh growth media, the media (100 μL) containing 40 μg/mL CPZ, MβCD, GNT, or AML was added to separate columns (2 columns kept untreated as a control group). After 1 h of incubation at 33° C. (5% CO2), 2.5 μL of C6-cHy-NPs (10× diluted with media) were added to each well. The plate was incubated for 4 h and the cells were washed using PBS. After adding fresh PBS, the fluorescence intensity of each well was recorded using a multi-well plate fluorescence spectrophotometer (Synergy 2, BioTek, USA) at λex/em 460/505. In another experiment to confirm the effect of various inhibitors, the cells (20000 per well) were seeded overnight, and incubated with different concentrations (0, 2.5, 5, 10, 20, 30, 40, 50, and 75 μg/mL) of MβCD, GNT, or AML. After treatment, incubation, and washing, the fluorescence intensity of each well was recorded as described above. Furthermore, to study the time of cellular internalization the cells (20000 per well) were treated with C-6-cHy-NPs (5 μL, 10× diluted), and the fluorescence of the samples was recorded after washing at different time intervals (0.25, 0.5, 1, 2, 3, 4, 5, 6, 8, 10, 24, and 48 h) of incubation. For microscopy analysis, the cells were seeded in a 6 well plate (1×10^5 cells/well) and incubated overnight. The next day, cells were washed and in each well media containing C-6-cHy-NPs was added. At different time intervals (0.5, 1, 2, 3, 4, and 5 h), the cells of a well were washed using PBS and analyzed under the fluorescence microscope using a 20× lens (Revolve, Discover Echo Inc., San Diego, CA, USA) at λex 460 nm. Counterstain Hoechst 33342 (1 μg/mL, 10 min incubation in the dark, λex 350 nm) was used.

caspase 3/7 [2] = test: Caspase 3/7 activation in CisPt-exposed cells (FLICA, fluorescence microscopy), Example 1; format: cell-based; conditions: CisPt-exposed HEI-OC1 cells
Experimental: Novel dual stimuli-responsive nanoformulations have been investigated for the synthesis of ROS-responsive polymers, and thermo-responsive polymers and their characterization using ^1H NMR. Drug loaded NCs comprising BUC and/or DLT in micelles of PPS-mPEG2000 were prepared by nanoprecipitation methods. The BUC-PPS-mPEG2000-NCs and DLT-PPS-mPEG2000-NCs were characterized using DLS and NTA and TEM images. The EE % and DL % of NCs were determined using HPLC and Ellman's assays. The long-term storage stability over two months was checked by using DLS for size and PDI. In vitro assessments were performed on the HEIOC1 cell lines for MTT and Live-dead cell assays for biocompatibility and cellular uptake analysis, respectively. The cytoprotective effect of BUC-NCs, DLT-NCs and BUC/DLT-PPS-mPEG2000-NCs, were studied after treating with various regimens and different concentration with and without cisplatin. The ROS-Scavenging effect nanoformulation was confirmed by the DCFH-DA assay, and FLICA assays. The final formulation, named NanoSensoGel, comprising a combination of a thermo-responsive P407 hydrogel, and the ROS-responsive BUC/DLT loaded PPS-mPEG2000-NCs, was characterized for its bio-responsiveness, a novel method was established to perform the in vitro drug release, and release kinetics mechanism were studied for dual drug release.

[3] = In vitro drug release kinetics from thermoresponsive hydrogel (Korsmeyer-Peppas model); format: physicochemical; conditions: PBS pH 7.4; for release from the hydrogel: in 48 h at 25° C.; for maximum release from the hydrogel: in one month at 37° C.
Experimental: Two 24 well plates were taken equipped with 6.5 mm inserts (Transwell®, Costar, Corning, NY, USA) having 8 µm pores polycarbonate support membrane six in each plate. The developed hydrogel formulations containing FL-cHy-NPs and HK-cHy-NPs were filled in the inserts (n=3, in each plate and each formulation). One plate was placed at 37° C. while the other one was kept at 25° C. After 30 min, the receiver media (1 mL, PBS pH 7.4) was filled in each well-containing insert. Other wells were filled with deionized water to maintain humidity in the plate. […] The drug content (FL and HK) was extracted using DCM; solvent-solvent extraction. After evaporating the DCM, the extracted FL and HK content was dissolved in methanol (100 μL, 100% LC-MS grade). The drug quantification of FL and HK in each sample was done using HPLC using the same procedure described above. The release kinetics of FL and HK from both hydrogels were calculated using the Korsmeyer-Peppas model (eq 7). where, Mt is the mass of the drug released at time t; […]

neuromast hair cells = test: Otoprotection studies on zebrafish (cisplatin ototoxicity); format: in vivo; conditions: 5-6 dpf fish; 33, 17, 2 mM alone or 17+17, 8.5+8.5, 3+3 mM; cisplatin 400 mM, 6 hours
Experimental: Fish were maintained at 28.5° C. in E3 media with a 14-hour light/10-hour dark cycle. Otoprotection studies were performed in 5-6 dpf wild type (TuAB) fish as previously described [2]. Briefly, fish were pre-incubated for one hour in E3 media containing FL, HK or FL+HK and then co-incubated for 6 hours with the corresponding cytoprotective molecules and clinical cisplatin 400 mM. Concentrations were as follow: FL or HK=33 mM, 17 mM and 2 mM; FL+HK=17+17 mM, 8.5+8.5 mM and 3+3 mM. Fish were also incubated with empty NPs as control. After the treatment, fish were transferred to fresh E3 media for one hour to recover, followed by fixation (4% PFA) and processing for confocal imaging. For the detection of neuromast hair cells, fish were immunostained for the hair cell marker, otoferlin (HCS-1, DSHB, 1:200 dilution). Hair cells were manually counted using a Zeiss AxioSkop 2 fluorescence microscope. The neuromasts inspected were part of the cranial system and included the otic, middle, and opercular neuromasts. Ten to twelve fish were used per treatment. Confocal imaging was performed using a Zeiss LSM 700 confocal laser scanning image system. Images were captured at room temperature with automatically set sectioning and processed with ZEN black edition software. Z-stacks are presented as flat Z-projections.

HEI-OC1 cells [4] = test: Intracellular ROS generation (DCFH2-DA); format: cell-based
Experimental: (§1) The HEI-OC1 Cells (10000 cells/well in 96-well plates) were treated with various treatment groups as described above in the cell cytotoxicity study section. The endpoints for ROS generation, apoptosis, and necrosis studies were set up at 24, 36, and 48 h, respectively. For ROS generation study, the cells were washed two times with fresh media and then culture media containing DCFH2DA reagent (10 μM) was added to each well. After 30 min incubation in dark at 33° C. (5% CO2) the cells were washed with PBS three times. Fresh PBS (100 μL) was added and the fluorescence was recorded at λex/em 480/530 nm using a multi-well plate fluorescence spectrophotometer (Synergy 2, BioTek, USA). […] After washing, the fluorescence was recorded at λex/em 480/530 nm using a multi-well plate fluorescence spectrophotometer (Synergy 2, BioTek, USA). […] After 15 min incubation in dark, the fluorescence was recorded at λex/em 530/615 nm using a multi-well plate fluorescence spectrophotometer (Synergy 2, BioTek, USA). The fluorescence microscopy analysis of ROS generation, apoptosis, and necrosis experiments was performed. […] The cells were observed under the fluorescence microscope using a 20× lens at the respective dye fluorescence filter as described above. For HOECHST-33342 λex/em 350/460 nm fluorescence filter was used.

HEI-OC1 cells [5] = test: MitoSOX mitochondrial superoxide assay; format: cell-based; conditions: MitoSOX fluorescence
HEI-OC1 cells [6] = test: PI staining necrosis / cell death assay; format: cell-based; conditions: 48 h; pre-treatment then CisPt; CisPt row is CisPt only
Experimental: as §1

caspase 3/7 [7] = test: Caspase 3/7 apoptosis assay; format: cell-based; conditions: HEI-OC1
Experimental: as §1

Compound: N=C(N)NC(=O)c1nc(Cl)c(N)nc1N [AML, Amiloride]
effect of pathway inhibitor pretreatment on cellular internalization of C6-cHy-NPs (HEI-OC1 cells [1]): no significant change in the cellular internalization

Compound: CC(C)(S)C(=O)N[C@@H](CS)C(=O)O [BUC, bucillamine]
inhibition of caspase 3/7 activation (caspase 3/7 [2]): highly responsible for the inhibition of the caspase 3/7 activation

Compound: CN(C)CCCN1c2ccccc2Sc2ccc(Cl)cc21 [CPZ, Chlorpromazine]
effect of pathway inhibitor pretreatment on cellular internalization of C6-cHy-NPs (HEI-OC1 cells [1]): significantly reduced cellular internalization

release from the hydrogel [3]: ~60%
maximum release from the hydrogel [3]: ~50%
Compound: Fc1ccc(C(c2ccc(F)cc2)N2CCN(C/C=C/c3ccccc3)CC2)cc1 [FL, Flunarizine]
protection of neuromast hair cells against cisplatin-induced ototoxicity (neuromast hair cells): prevented hair cell loss

Compound: O=c1c(-c2ccc(O)cc2)coc2cc(O)cc(O)c12 [GNT, Genistein]
effect of pathway inhibitor pretreatment on cellular internalization of C6-cHy-NPs (HEI-OC1 cells [1]): no significant change in the cellular internalization

release from the hydrogel [3]: ~60%
maximum release from the hydrogel [3]: ~50%
Compound: C=CCc1ccc(O)c(-c2ccc(O)c(CC=C)c2)c1 [HK, Honokiol]
protection of neuromast hair cells against cisplatin-induced ototoxicity (neuromast hair cells): prevented hair cell loss

Compound: O=S([O-])([O-])=S.[Na+].[Na+] [STS, Sodium thiosulphate]
ROS generation compared to CisPt-only treated cells (HEI-OC1 cells [4]; 24 h post CisPt addition): did not show a significant ROS generation
ratio of normalized intensities of total cells and DCF-stained cells (HEI-OC1 cells [4]; fluorescence microscopy, pre-treatment then CisPt, CisPt row is CisPt only): 1.53±0.23
mitochondrial superoxide compared to CisPt-only treated cells (HEI-OC1 cells [5]): significantly reduced mitochondrial superoxide
ratio of normalized intensities of total cells and PI-stained cells (HEI-OC1 cells [6]): 2.03±0.02
caspase 3/7 activation compared to CisPt only treated cells (caspase 3/7 [7]): significantly reduced signals of caspase 3/7 activation

Compound: methyl-β-cyclodextrin [MβCD]
effect of pathway inhibitor pretreatment on cellular internalization of C6-cHy-NPs (HEI-OC1 cells [1]): no significant change in the cellular internalization
